Each molecule was assayed against T1, Gal4/hFXR fusion protein (Homo sapiens, UniProt Q96RI1) (assay: Gal4/hFXR fusion protein agonist activity in human 293 cells (luciferase reporter)).
T1 sequence (Q96RI1 262-486 limits assumed): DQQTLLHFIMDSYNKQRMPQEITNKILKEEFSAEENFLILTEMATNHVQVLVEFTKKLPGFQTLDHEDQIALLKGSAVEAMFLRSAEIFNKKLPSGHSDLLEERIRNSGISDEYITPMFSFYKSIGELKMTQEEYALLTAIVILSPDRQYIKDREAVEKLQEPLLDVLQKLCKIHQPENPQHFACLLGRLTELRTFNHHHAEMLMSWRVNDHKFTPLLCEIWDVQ

First: CC(C)OC(=O)C1CN(C(=O)c2cccc(C(F)(F)F)c2)CC(C)(C)c2cc(C#N)[nH]c21 (stereo not drawn) [iso-propyl 2-cyano-4,4-dimethyl-6-[3-(trifluoromethyl)benzoyl]-1,4,5,6,7,8-hexahydropyrrolo[2,3-d]azepine-8-carboxylate]
Second: CC(C)OC(=O)C1CN(C(=O)c2cccc(F)c2)CC(C)(C)c2cc(C#N)[nH]c21 (stereo not drawn) [isopropyl 2-cyano-6-(3-fluorobenzoyl)-4,4-dimethyl-1,4,5,6,7,8-hexahydropyrrolo[2,3-d]azepine-8-carboxylate]
The EC50 of the first is 2.1-fold higher: 2700 nM for the first, 1300 nM for the second.

`CC(C)OC(=O)C1CN(C(=O)c2ccc(C#N)cc2)CC(C)(C)c2cc(C#N)[nH]c21` (stereo not drawn) [iso-propyl 2-cyano-6-(4-cyanobenzoyl)-4,4-dimethyl-1,4,5,6,7,8-hexahydropyrrolo[2,3-d]azepine-8-carboxylate] and `CC(C)OC(=O)C1CN(C(=O)c2ccc(Cl)cc2)CC(C)(C)c2cc(C#N)[nH]c21` (stereo not drawn) [iso-propyl 6-(4-chlorobenzoyl)-2-cyano-4,4-dimethyl-1,4,5,6,7,8-hexahydropyrrolo[2,3-d]azepine-8-carboxylate] are within 1.5-fold of each other in EC50: 5700 nM for the first, 4100 nM for the second.

First: CC(C)OC(=O)C1CN(C(=O)C2CCCCC2)CC(C)(C)c2cc(C#N)[nH]c21 (stereo not drawn) [iso-propyl 2-cyano-6-(cyclohexylcarbonyl)-4,4-dimethyl-1,4,5,6,7,8-hexahydropyrrolo[2,3-d]azepine-8-carboxylate]
Second: CC(C)OC(=O)C1CN(C(=O)C2CCOCC2)CC(C)(C)c2cc(C#N)[nH]c21 (stereo not drawn) [isopropyl 2-cyano-4,4-dimethyl-6-(tetrahydro-2H-pyran-4-ylcarbonyl)-1,4,5,6,7,8-hexahydropyrrolo[2,3-d]azepine-8-carboxylate]
The EC50 of the first is 1.7-fold lower: 1900 nM for the first, 3300 nM for the second. The first is the more potent here.

Going from `CC(C)OC(=O)C1CN(C(=O)c2cccc(Cl)c2)CC(C)(C)c2cc(C#N)[nH]c21` (stereo not drawn) [iso-propyl 6-(3-chlorobenzoyl)-2-cyano-4,4-dimethyl-1,4,5,6,7,8-hexahydropyrrolo[2,3-d]azepine-8-carboxylate] to `CC(C)OC(=O)C1CN(C(=O)c2ccc(F)c(F)c2)CC(C)(C)c2cc(C#N)[nH]c21` (stereo not drawn) [isopropyl 2-cyano-6-(3,4-difluorobenzoyl)-4,4-dimethyl-1,4,5,6,7,8-hexahydropyrrolo[2,3-d]azepine-8-carboxylate], the EC50 falls from 1300 nM to 280 nM (4.6-fold).

`CC(C)OC(=O)C1CN(C(=O)c2ccc(F)cc2)CC(C)(C)c2cc(C#N)[nH]c21` (stereo not drawn) [isopropyl 2-cyano-6-(4-fluorobenzoyl)-4,4-dimethyl-1,4,5,6,7,8-hexahydropyrrolo[2,3-d]azepine-8-carboxylate] gave an EC50 of 640 nM.
